What was measured:
H3K27me3 in HCT116 cells = experiment: hmqChIP quantification of global H3K27me3 level after drug treatment, HCT116; assay type: cell-based, human; conditions: 0.5 uM/5 uM, 40 h, anti-H3K27me3 ChIP
Method: (§1) A highly multiplexed experiment profiling global levels of three histone modifications in 96 samples: Two different cancer cell lines (human colon cancer HCT116, human osteosarcoma U2OS) were treated with 11 different drugs at 2 concentrations each (low, high) or DMSO as a control. Two replicates each (rep1, rep2) were performed of each treatment, totaling 96 samples. For U2OS, 9000 cells were seeded per 96-well, For HCT116, 6000 cells were seeded. After 24 h, drugs were added to each well, using the concentration specified in the following table:
(§2) After further growth for 40 h, the cell number was approx. 50 000 cells per well. […]
(§3) The final libraries were sequenced twice, to test the influence of sequencing two different random set of molecules on the quantification of global levels (that only scarcely covering the genome). The first time ˜1 Mio reads were sequenced in total for the four sub-pools (3 ChIP, 1 input), approximately 250 000 per sub-pool. […] The second time at total of 25 Mio reads were collected and either all of the reads were analyzed, or only a randomly selected subset of 1 mio reads. When all reads were analyzed, it corresponds to approx. 260,416 reads per sample. Input-normalized unique read count (INRCs) using DMSO controls as reference were calculated as described in Example 2 and plotted in a heatmap with grayscale and circle size reflecting the INRC.

[1] = system: H3K27me3 in mouse embryonic stem cells; conditions: dataset according to Kumar and Elsässer 2019; cited from earlier work
H3K27ac = experiment: hmqChIP quantification of global H3K27ac level after drug treatment; assay type: cell-based, human; conditions: HCT116 and U2OS cells, 0.5 uM/5 uM, 40 h, anti-H3K27ac ChIP
Method: as §1, §2, §3

H3K27me3 in U2OS cells = experiment: hmqChIP quantification of global H3K27me3 level after drug treatment, U2OS; assay type: cell-based, human; conditions: 0.5 uM/5 uM, 40 h, anti-H3K27me3 ChIP
Method: as §1, §2, §3

## CCN(c1cc(C#CCN2CCOCC2)cc(C(=O)NCc2c(C)cc(C)[nH]c2=O)c1C)[C@H]1CC[C@H](N(C)CCOC)CC1 [EPZ011989]
H3K27me3 in HCT116 cells
  global H3K27me3 level (INRC relative to DMSO control): decrease H3K27me3

## CCOC(=O)CCNc1cc(N2CCc3ccccc3CC2)nc(-c2ccccn2)n1 [GSK-J4]
[1]
  H3K27me3 level of treated mESC used as calibration cell source: increase H3K27me3 above physiologic levels

## O=C(CCCCCCC(=O)Nc1ccccc1)NO [SAHA]
H3K27ac
  global H3K27ac level (INRC relative to DMSO control): increase H3K27ac acetylation

## CC(NC(=O)c1ccccc1/N=C/c1c(O)ccc2ccccc12)c1ccccc1 (centres unmarked) [Sirtinol]
H3K27me3 in U2OS cells
  global H3K27me3 level (INRC relative to DMSO control): decreases H3K27me3
H3K27ac
  global H3K27ac level (INRC relative to DMSO control): increase H3K27ac acetylation

— patent publication US20240011018A1, “MULTIPLEXED METHOD FOR ASSESSING GLOBAL OR GENOMIC LOCUS-SPECIFIC LEVELS OF CHROMATIN MODIFICATION” (Epigenica AB, priority 2020, published 2024)
